Format in all cases: cell-based
Holding throughout (conditions): Homo sapiens

Assay [1] relates to CEACAM5-positive LS174T cells. Kind of assay: Cell viability assay (Cell Titer-Glo, six days) on LS174T. How it is done: (§1) Cytotoxicity effects of the ADC on the cancer cell lines were measured by cell viability assays. Cells were seeded in a volume of 90 μL in 96-well plates the day before treatment. Test compounds (ADCs or free payloads) were formulated at 10-fold the starting concentration in cell culture medium. Test compounds were serial diluted (1:4) and 10 μL of each dilution was added to the cells in triplicates. Plates were cultured at 37° C. in a CO2 incubator for six days. For cell viability measurement, Cell Titer-Glo® reagent (Promega™ Corp, Madison, WI) was added to each well, and plates processed according to the manufacturer's instructions. Luminescence signals were measured using a Varioskan plate reader (Thermo Fisher). Luminescence readings were converted to % viability relative to untreated cells. Data was fitted with non-linear regression analysis, using log (inhibitor) vs. response, variable slope, 4-parameter fit equation using Genedata Screener or GraphPad Prism. Data is shown as % relative cell viability vs. molar compound concentration, error bars indicating standard deviation (SD) of duplicates or triplicates. Geometric mean values of IC50s derived from multiple experiments were calculated.
(In general: In ATP-based viability assays light output follows the ATP content of the culture.)

The subject of assay [2] is CEACAM5-negative MDA-MB-231 cells. The experiment in a line: Cell viability assay (Cell Titer-Glo, six days) on MDA-MB-231. How it is done: as §1
(§2) A fold reduction in IC50, defined as a S[…], was calculated by dividing the IC50 against CEACAM5-negative MDA-MB-231 cells by the IC50 against each CEACAM5-positive cell line (see Table 6). […]

For assay [3], the system named is CEACAM5-positive SK-CO-1 cells. The experiment in a line: Cell viability assay (Cell Titer-Glo, six days) on SK-CO-1. The protocol:
as §1, §2

In assay [4] the test system is CEACAM5-positive SNU-16 cells. The experiment in a line: Cell viability assay (Cell Titer-Glo, six days) on SNU-16. How it is done:
as §1, §2

For assay [5], the system named is CEACAM5-positive MKN-45 cells. The experiment in a line: Cell viability assay (Cell Titer-Glo, six days) on MKN-45. How it is done:
as §1, §2

As usually defined, the IC50 is the midpoint of a concentration-inhibition curve. Consider `CC[C@@]1(O)C(=O)OCc2c1cc1n(c2=O)Cc2c-1nc1cc(F)c(C)c3c1c2[C@@H](N)CC3` [Payload, (1S,9S)-1-Amino-9-ethyl-5-fluoro-1,2,3,9,12,15-hexahydro-9-hydroxy-4-methyl-10H, 13H-benzo (de) pyrano (3′,4′: 6,7) indolizino (1,2-b) quinoline-10,13-dione], for which the IC50 is 3e-10 M in assay [1] (144 h, read-out: LS174T IC50 [M], n ≥ 2, CEACAM5 positive, six days, geometric mean); 6e-10 M in assay [2] (144 h, read-out: MDA-MB-231 IC50 [M], n ≥ 3, MDA-MB-231, CEACAM5 negative, six days, n/a = below −50% effect cut-off); 2.2e-10 M in assay [3] (144 h, read-out: SK-CO-1 IC50 [M], n ≥ 2, SK-CO-1, CEACAM5 positive, six days, geometric mean); 2.9e-10 M in assay [4] (144 h, read-out: SNU-16 IC50 [M], n ≥ 2, SNU-16, CEACAM5 positive, six days, geometric mean); 6.6e-10 M in assay [5] (144 h, read-out: MKN-45 IC50 [M], n ≥ 2, MKN-45, CEACAM5 positive, six days, geometric mean). Further, the Emax in assay [1] (at the highest tested compound concentration, read-out: Maximal effect compared to untreated controls, LS174T) is -91%; in assay [2] (MDA-MB-231, at the highest tested compound concentration, read-out: Maximal effect compared to untreated controls, MDA-MB-231) it was -91%; in assay [3] (SK-CO-1, at the highest tested compound concentration, read-out: Maximal effect compared to untreated controls, SK-CO-1), -97%; in assay [4] (SNU-16, at the highest tested compound concentration, read-out: Maximal effect compared to untreated controls, SNU-16) it was -99%; in assay [5] (MKN-45, at the highest tested compound concentration, read-out: Maximal effect compared to untreated controls, MKN-45) it was -100%.
